Assay results as given in patent publication US20090220554A1, “Transglutaminase Inhibitors and Methods of Use Thereof” (priority 2005, published 2009).

target: T1, recombinant human tissue transglutaminase 2 (TG2) (Homo sapiens, UniProt P21980); test: TG2 deamidation assay (GDH-coupled fluorescent NADH assay, Z-Gln-Gly substrate); assay type: biochemical; settings: fluorescent NADH-based deamidation assay; from log(concentration)-response relationships; read-out: IC50 for inhibition of TG2
T1 construct: 6xHis; made in house; host or cells: E. coli BL21
T1 sequence (P21980 1-687): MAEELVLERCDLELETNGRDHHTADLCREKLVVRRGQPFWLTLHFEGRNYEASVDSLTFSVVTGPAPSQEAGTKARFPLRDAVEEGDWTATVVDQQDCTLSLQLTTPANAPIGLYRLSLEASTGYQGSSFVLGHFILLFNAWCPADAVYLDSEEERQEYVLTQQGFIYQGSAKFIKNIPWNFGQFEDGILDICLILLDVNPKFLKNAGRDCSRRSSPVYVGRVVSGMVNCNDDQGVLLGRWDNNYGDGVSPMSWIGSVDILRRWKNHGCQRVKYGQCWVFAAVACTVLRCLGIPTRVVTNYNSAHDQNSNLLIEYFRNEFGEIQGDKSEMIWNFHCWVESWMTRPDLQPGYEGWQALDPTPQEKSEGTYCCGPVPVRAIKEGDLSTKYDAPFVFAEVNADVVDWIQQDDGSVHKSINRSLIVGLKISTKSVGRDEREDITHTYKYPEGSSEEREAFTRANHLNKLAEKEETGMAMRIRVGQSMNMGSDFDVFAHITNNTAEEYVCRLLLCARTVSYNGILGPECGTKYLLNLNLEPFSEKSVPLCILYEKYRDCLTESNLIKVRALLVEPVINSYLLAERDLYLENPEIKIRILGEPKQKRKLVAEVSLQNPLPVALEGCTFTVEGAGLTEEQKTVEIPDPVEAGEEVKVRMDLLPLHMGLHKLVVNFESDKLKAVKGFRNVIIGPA
Experimental: The illustrative compounds of the invention described above were tested in a TG2 assay with recombinant human tissue transglutaminase, as described in the Examples. […] It should be noted that, although […] inhibition is observed upon addition of these compounds, this observation may result from the ability of some inhibitors to bind to the GTP binding site of TG2. […] Thus, it follows that pharmacologically useful inhibitors of TG2 could be identified based on their ability to bind to either the enzyme active site or the GTP binding site. Purification of recombinant human TG2. […] The enzyme was isolated from cell lysates using nickel affinity chromatography. Following a buffer exchange, TG2 was purified further by ion-exchange (HiTrap-Q) chromatography using an Akta-FPLC system (Amersham Biosciences). […] Assays of tissue transglutaminase activity. The transamidation activity of TG2 was measured as described by Slaughter, et al. Anal Biochem, 1992. 205(1): p. 166-71. Briefly, 96-well Maxisorp plates (Nunc, Inc.) were coated with […] N′—N′-dimethylated casein overnight at 4° C. […] The deamidation activity of TG2 was measured essentially as described previously (Piper, et al. Biochemistry, 2002. 41(1): p. 386-93). […] TG2-catalyzed production of ammonium ions was monitored through the coupled oxidation of NADH by GDH. NADH levels were monitored by fluorescence (excitation: 341 nm; emission 451 nm) and were standardized with known amounts of NADH. During enzymatic reactions, NADH levels were monitored kinetically using a Fluoroskan II (Labsystems, Inc.) 96-well plate reader and a lag time of four minutes. These values were determined through analysis of the log(concentration)-response relationships.

Compound | IC50
O=C(CSc1nnc2c(n1)[nH]c1ccc(F)cc12)OC1CCCCC1 [CSRF-2, (6-fluoro-9H-1,3,4,9-tetraaza-fluoren-2-ylsulfanyl)-acetic acid cyclohexyl ester] | 36 µM
Cc1cccc(NC(=S)N(Cc2cc3ccc(C)c(C)c3[nH]c2=O)CC2CCCO2)c1 (stereo not shown) [CSRF-3, 1-(7,8-dimethyl-2-oxo-1,2-dihydro-quinolin-3-ylmethyl)-1-(tetrahydrofuran-2-ylmethyl)-3-m-tolyl-thiourea] | 30 µM
O=C(CN1C(=O)C(=O)c2ccccc21)Nc1ccc(N2CCN(C(=O)c3cccs3)CC2)cc1 [CSRF-6, 2-(2,3-dioxo-2,3-dihydro-indol-1-yl)-N-{4-[4-(thiophene-2-carbonyl)-piperazin-1-yl]-phenyl}-acetamide] | 17 µM
O=C(CN1C(=O)C(=O)c2cc(Br)ccc21)NCC1CC1 [CSRF-7, 2-(5-bromo-2,3-dioxo-2,3-dihydro-indol-1-yl)-N-cyclopropylmethyl-acetamide] | 30 µM
Cc1ccc2c(c1)C(=O)C(=O)N2CC(=O)Nc1ccc(S(=O)(=O)NCC2CCCO2)cc1 (stereo not shown) [CSRF-8] | 150 µM
O=C(NNC(=O)C1=NOC(CNc2ncc(C(F)(F)F)cc2Cl)C1)Nc1ccc(Cl)cc1 (stereo not shown) [CSRF-13, 1-(4-chloro-phenyl)-3-(2-{5-[3-chloro-5-trifluoromethyl-pyridin-2-ylamino)-methyl]-4,5-dihydro-isoxazol-3-yl}-carboxamido-N-urea] | 250 µM
O=C1Nc2ccc(Cc3ccc4c(c3)C(=O)C(=O)N4)cc2C1=O [CSRF-14, 1,1-di-(1H-indole-2,3-dione-5-yl)-methane] | 16 µM
CCN1C(=O)c2cccc3c(NC(=O)CSc4ccc5ccccc5n4)ccc1c23 [CSRF-17] | 200 µM
O=C1Nc2ccc(Oc3ccc4c(c3)C(=O)C(=O)N4)cc2C1=O [CSRF-18, di-(1H-indole-2,3-dione-5-yl)-ether] | 23 µM
O=C1C(=O)N(C(=O)NC2CCCCC2)c2ccc(Br)cc21 [CSRF-20, 5-bromo-2,3-dioxo-2,3-dihydro-indole-1-carboxylic acid cyclohexylamide] | 110 µM
CC1=CC(C)(C)N2C(=O)C(=O)c3cc(OC(=O)C4CCCO4)cc1c32 (stereo not shown) [CSRF-24, tetrahydrofuran-2-carboxylic acid 4,4,6-trimethyl-1,2-dioxo-1,2-dihydro-4H-pyrrolo[3,2,1-ij]quinolin-8-yl ester] | 450 µM

tested on: neurologic cancer; test: not given; settings: at concentrations of 12.5-50 mg/kg; cited from earlier work

Compound | activity in a mouse model for neurologic cancer
O=C(N[C@@H](Cc1ccc(O)cc1)C(=O)NCC1CC(Br)=NO1)OCc1ccccc1 (stereo partly shown) [KCC009] | active

target: T1, recombinant human tissue transglutaminase 2 (TG2); test: TG2 transamidation assay (5-(biotinamido)pentylamine incorporation into dimethylated casein); assay type: biochemical; settings: not given
Text: Purification of recombinant human TG2. TG2 was purified from eight 1 L cultures of the BL21 strain of E. coli expressing a plasmid encoding recombinant, 6×-His tagged human tissue transglutaminase 2 (TG2). The enzyme was isolated from cell lysates using nickel affinity chromatography. Following a buffer exchange, TG2 was purified further by ion-exchange (HiTrap-Q) chromatography using an Akta-FPLC system (Amersham Biosciences). Fractions containing purified TG2 were pooled, exchanged into low salt buffer (20 mM Tris-Cl, 1 mM EDTA, 1 mM DTT, pH 7.2), supplemented with 10% glycerol, flash frozen in 100 μL aliquots and stored at −80° C.
Assays of tissue transglutaminase activity. The transamidation activity of TG2 was measured as described by Slaughter, et al. Anal Biochem, 1992. […] 5-BP incorporated by TG2 was visualized by binding of a streptavidin-alkaline phosphatase conjugate (Sigma) and kinetic measurement of the dephosphorylation of pNPP was monitored at 410 nm using a ThermoMax microplate reader (Molecular Devices). The deamidation activity of TG2 was measured essentially as described previously (Piper, et al. Biochemistry, 2002. 41(1): p. 386-93). […] TG2-catalyzed production of ammonium ions was monitored through the coupled oxidation of NADH by GDH. NADH levels were monitored by fluorescence (excitation: 341 nm; emission 451 nm) and were standardized with known amounts of NADH. […]

Compound | IC50
O=C1NC(=O)N(c2cccc(Cl)c2)C(=O)/C1=N/c1ccc(Cl)c(CN2C(=O)c3ccccc3C2=O)c1 [CSRF-21, 5-[4-Chloro-3-(1,3-dioxo-1,3-dihydro-isoindol-2-ylmethyl)-phenylimino]-1-(3-chloro-phenyl)-pyrimidine-2,4,6-trione] | 10 µM
